Reference: PubChem BioAssay (NCI)
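Where inhibition never reached the appropriate level, the endpoint shown equals the highest concentration tested. Otherwise, values were interpolated linearly from a five-concentration, 48-hour dose response in 96-well plates. The concentration for 50% growth inhibition is given as GI50. TGI: concentration producing complete growth inhibition.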

What was measured:
Assay in all cases: inhibition of tumour cell growth, NCI panel, 48 h
SK-OV-3 ovarian = tested on: SK-OV-3 ovarian
SF-268 CNS = tested on: SF-268 CNS
DU-145 prostate = tested on: DU-145 prostate
MDA-MB-435 = tested on: MDA-MB-435
SNB-75 CNS = tested on: SNB-75 CNS
HOP-92 NSCLC = tested on: HOP-92 NSCLC
NCI-H23 lung = tested on: NCI-H23 lung
NCI-H226 lung = tested on: NCI-H226 lung
CAKI-1 renal = tested on: CAKI-1 renal
LOX IMVI melanoma = tested on: LOX IMVI melanoma

C=C1C(=O)O[C@H]2[C@H]1CC/C(COC(=O)NCCc1cccc(OC)c1)=C\CC[C@@]1(C)O[C@@H]21
GI50 (SK-OV-3 ovarian): 13.6 µM | TGI (SK-OV-3 ovarian): 27.7 µM | GI50 (SF-268 CNS): 1.78 µM | TGI (SF-268 CNS): 4.91 µM | GI50 (DU-145 prostate): 0.892 µM | TGI (DU-145 prostate): 2.16 µM | GI50 (MDA-MB-435): 1.58 µM | TGI (MDA-MB-435): 3.7 µM | GI50 (SNB-75 CNS): 1.47 µM | TGI (SNB-75 CNS): 4.71 µM | GI50 (HOP-92 NSCLC): 1.84 µM | TGI (HOP-92 NSCLC): 3.96 µM | GI50 (NCI-H23 lung): 1.86 µM | TGI (NCI-H23 lung): 4.33 µM | GI50 (NCI-H226 lung): 1.57 µM | TGI (NCI-H226 lung): 3.6 µM | GI50 (CAKI-1 renal): 1.19 µM | TGI (CAKI-1 renal): 2.52 µM | GI50 (LOX IMVI melanoma): 1.34 µM | TGI (LOX IMVI melanoma): 2.81 µM

CCOc1ccc(N=Cc2ccnc3ccccc23)cc1
TGI (SK-OV-3 ovarian): > 83.3 µM | TGI (SF-268 CNS): > 84.2 µM | TGI (DU-145 prostate): > 100 µM | TGI (MDA-MB-435): > 100 µM | TGI (SNB-75 CNS): > 92.2 µM | TGI (HOP-92 NSCLC): > 100 µM | TGI (NCI-H23 lung): > 98 µM | TGI (NCI-H226 lung): > 100 µM | TGI (CAKI-1 renal): > 100 µM | TGI (LOX IMVI melanoma): > 80.3 µM

CC/C(Cc1ccccc1)=C(/c1ccc(O)cc1)c1ccc(OCCN2CCCC2)cc1
GI50 (SK-OV-3 ovarian): 1.74 µM | TGI (SK-OV-3 ovarian): 3.32 µM | GI50 (SF-268 CNS): 1.61 µM | TGI (SF-268 CNS): 3.35 µM | GI50 (DU-145 prostate): 1.94 µM | TGI (DU-145 prostate): 3.88 µM | GI50 (MDA-MB-435): 1.67 µM | TGI (MDA-MB-435): 3.23 µM | GI50 (SNB-75 CNS): 1.31 µM | TGI (SNB-75 CNS): 2.98 µM | GI50 (HOP-92 NSCLC): 1.61 µM | TGI (HOP-92 NSCLC): 3.26 µM | GI50 (NCI-H23 lung): 1.72 µM | TGI (NCI-H23 lung): 3.53 µM | GI50 (NCI-H226 lung): 1.77 µM | TGI (NCI-H226 lung): 3.58 µM | GI50 (CAKI-1 renal): 1.65 µM | TGI (CAKI-1 renal): 3.52 µM | GI50 (LOX IMVI melanoma): 1.62 µM | TGI (LOX IMVI melanoma): 3.05 µM

O=C1Nc2ccccc2/C1=C/c1cn(CC(O)Cn2cc(/C=C3\C(=O)Nc4ccccc43)c3ccccc32)c2ccccc12 (stereo not given)
GI50 (SK-OV-3 ovarian): 1.65 µM | TGI (SK-OV-3 ovarian): 3.68 µM | GI50 (SF-268 CNS): 1.75 µM | TGI (SF-268 CNS): 3.92 µM | GI50 (DU-145 prostate): 1.55 µM | TGI (DU-145 prostate): 2.95 µM | GI50 (MDA-MB-435): 1.81 µM | TGI (MDA-MB-435): 3.46 µM | GI50 (SNB-75 CNS): 1.33 µM | TGI (SNB-75 CNS): 2.92 µM | GI50 (HOP-92 NSCLC): 1.8 µM | TGI (HOP-92 NSCLC): 4.15 µM | GI50 (NCI-H23 lung): 1.57 µM | TGI (NCI-H23 lung): 3.36 µM | GI50 (NCI-H226 lung): 1.68 µM | TGI (NCI-H226 lung): 3.55 µM | GI50 (CAKI-1 renal): 1.62 µM | TGI (CAKI-1 renal): 3.39 µM | GI50 (LOX IMVI melanoma): 0.326 µM | TGI (LOX IMVI melanoma): 1.31 µM

COc1ccc(-c2nn3ncccc3c2-c2ccnc(Nc3ccc4c(c3)OCCO4)n2)cc1
GI50 (SK-OV-3 ovarian): 4.08 µM | TGI (SK-OV-3 ovarian): > 20.8 µM | GI50 (SF-268 CNS): 11.1 µM | TGI (SF-268 CNS): > 25 µM | GI50 (DU-145 prostate): 8.19 µM | TGI (DU-145 prostate): > 25 µM | GI50 (MDA-MB-435): 12.5 µM | TGI (MDA-MB-435): > 25 µM | GI50 (SNB-75 CNS): > 13.9 µM | TGI (SNB-75 CNS): > 25 µM | GI50 (HOP-92 NSCLC): 0.521 µM | TGI (HOP-92 NSCLC): 10.6 µM | GI50 (NCI-H23 lung): 9.22 µM | TGI (NCI-H23 lung): > 25 µM | GI50 (NCI-H226 lung): 5.51 µM | TGI (NCI-H226 lung): > 25 µM | GI50 (CAKI-1 renal): 2.7 µM | TGI (CAKI-1 renal): > 24.1 µM | GI50 (LOX IMVI melanoma): 3.65 µM | TGI (LOX IMVI melanoma): > 25 µM

S=C(CSc1ccccc1)Nc1cccc2ccccc12
TGI (SK-OV-3 ovarian): > 100 µM | TGI (SF-268 CNS): > 100 µM | TGI (DU-145 prostate): > 100 µM | TGI (MDA-MB-435): > 100 µM | TGI (SNB-75 CNS): > 100 µM | TGI (HOP-92 NSCLC): > 100 µM | TGI (NCI-H23 lung): > 100 µM | TGI (NCI-H226 lung): > 100 µM | TGI (CAKI-1 renal): > 100 µM | TGI (LOX IMVI melanoma): > 100 µM

CC(C)=C1CCC(CN2CCOCC2)C1=O (stereo not given)
TGI (SK-OV-3 ovarian): > 100 µM | TGI (SF-268 CNS): 45 µM | TGI (DU-145 prostate): 30.4 µM | TGI (MDA-MB-435): 29.4 µM | TGI (SNB-75 CNS): 18 µM | TGI (HOP-92 NSCLC): 8.81 µM | TGI (NCI-H23 lung): 36.7 µM | TGI (NCI-H226 lung): 46.1 µM | TGI (CAKI-1 renal): 0.908 µM | TGI (LOX IMVI melanoma): 41.9 µM
